Where “and” joins values, the source holds several entries; their conditions need not be identical. Identical values can stand only once.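 In this assay, cells in 96-well plates receive the compound at five concentrations for 48 hours. Endpoints are linearly interpolated between the surrounding concentrations. GI50 = concentration required for 50% inhibition of growth. At the TGI there is no net growth.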
How the values were obtained:
Assay in all cases: NCI-60 cell line screen, 48 h
BT-549 breast = test system: BT-549 breast
HT29 colon = test system: HT29 colon
LOX IMVI melanoma = test system: LOX IMVI melanoma
MALME-3M melanoma = test system: MALME-3M melanoma
NCI-H226 lung = test system: NCI-H226 lung
OVCAR-4 ovarian = test system: OVCAR-4 ovarian
RXF 393 renal = test system: RXF 393 renal
SK-OV-3 ovarian = test system: SK-OV-3 ovarian
T-47D breast = test system: T-47D breast
UO-31 renal = test system: UO-31 renal

| SMILES | GI50 (BT-549 breast) | TGI (BT-549 breast) | GI50 (HT29 colon) | TGI (HT29 colon) | GI50 (LOX IMVI melanoma) | TGI (LOX IMVI melanoma) | GI50 (MALME-3M melanoma) | TGI (MALME-3M melanoma) | GI50 (NCI-H226 lung) | TGI (NCI-H226 lung) | GI50 (OVCAR-4 ovarian) | TGI (OVCAR-4 ovarian) | GI50 (RXF 393 renal) | TGI (RXF 393 renal) | GI50 (SK-OV-3 ovarian) | TGI (SK-OV-3 ovarian) | GI50 (T-47D breast) | TGI (T-47D breast) | GI50 (UO-31 renal) | TGI (UO-31 renal) |
| --- | --- | --- | --- | --- | --- | --- | --- | --- | --- | --- | --- | --- | --- | --- | --- | --- | --- | --- | --- | --- |
| COc1ccc(-n2cc(-c3cc(OC)c(OC)c(OC)c3)nc2SCc2ccccc2)cc1OC | > 82.7 µM | > 100 µM | > 100 µM | > 100 µM | 59.3 µM | > 100 µM | > 100 µM | > 100 µM | > 78.7 µM | > 100 µM | > 81.4 µM | > 100 µM | 56.3 µM | > 100 µM | > 100 µM | > 100 µM | 12.3 µM | > 100 µM | 17.7 µM | > 100 µM |
| O=c1[nH]c(=O)c2cc(C3CC(O)C(CO)O3)ccc2[nH]1 (centres undefined) | > 100 µM | > 100 µM | > 100 µM | > 100 µM | > 100 µM | > 100 µM | – | – | > 100 µM | > 100 µM | 43.5 µM | > 100 µM | > 100 µM | > 100 µM | > 100 µM | > 100 µM | > 100 µM | > 100 µM | > 100 µM | > 100 µM |
| O=C(O)C1C(C(=O)O)C23CC2(C(=O)O)C2(C(=O)O)CCC3=C3CCCC312 (centres undefined) | – | 69.9 µM | – | 44.8 µM | – | 28.1 µM | – | 15.2 µM | – | 27.5 µM | – | 80.6 µM | – | 37.7 µM | – | 36.6 µM | – | 53.5 µM | – | 33.2 µM |
| Cc1ccc2c(c1)C(C)Cc1c(Cl)ncnc1N2C (centres undefined) | 3 µM | 9.74 µM | 3.48 µM | 47.2 µM | 1.8 µM | 3.78 µM | 1.76 µM | 6.5 µM | 2.03 µM | 5.34 µM | 3.06 µM | > 100 µM | 2.87 µM | 8.62 µM | 3.75 µM | 31 µM | 6.9 µM | 65 µM | 3.03 µM | 45.2 µM |
| COc1ccc(/C(=N\O)c2cc(C)c(OC)c(C)c2)cc1O | 0.0261 µM | > 100 µM | 0.0446 µM | 11.8 µM | 0.0189 µM | > 100 µM | < 0.01 µM | > 100 µM | 11.2 µM | > 100 µM | 0.0279 µM | > 100 µM | < 0.01 µM | > 100 µM | 0.0166 µM | > 100 µM | – | – | 0.0709 µM | > 100 µM |
| O=Cc1ccccc1B(O)O | – | 95.9 µM | – | > 100 µM | – | > 100 µM | – | – | – | > 100 µM | – | > 100 µM | – | > 100 µM | – | > 100 µM | – | 62.4 µM | – | > 100 µM |
| NC1=C(c2nc(-c3ccccc3)cs2)C(c2ccc(Br)cc2)c2c(c3ccccc3oc2=O)O1 (centres undefined) | – | – | 148 µg/mL | > 150 µg/mL | > 150 µg/mL | > 150 µg/mL | > 150 µg/mL | > 150 µg/mL | 22.3 µg/mL | 94 µg/mL | 34.3 µg/mL | 99.9 µg/mL | 40.7 µg/mL | 141 µg/mL | 60.1 µg/mL | > 150 µg/mL | 44.3 µg/mL | > 150 µg/mL | – | – |
| S=c1ssc(Oc2ccccc2)c1Cl | 12.7 µM | 31.7 µM | 1.37 µM | > 100 µM | 5.61 µM | 22.7 µM | – | – | 27 µM | 73.8 µM | 34 µM | > 100 µM | 12 µM | 29.8 µM | 39.4 µM | > 100 µM | 21.5 µM | 43 µM | 19 µM | 58.8 µM |
| COc1cc(-n2cc(-c3ccc(Cl)cc3)nc2SCc2cccc(C#N)c2)cc(OC)c1OC | – | – | 54.1 µM | > 100 µM | > 100 µM | > 100 µM | 18.9 µM | 60.2 µM | 41.3 µM | > 100 µM | 20.9 µM | 74.7 µM | – | – | 71.5 µM | > 100 µM | 21.4 µM | > 100 µM | 60.4 µM | > 100 µM |
| Oc1[nH]c2c(Br)cccc2c1C1=Nc2ccccc2/C1=N/OCCN1CCCC1 | 1.24 µM | 2.85 µM | 0.561 µM | 6.6 µM | 0.626 µM | 2.45 µM | 1.16 µM | 4.84 µM | 0.948 µM and 0.708 µM | 3.05 µM and 29.1 µM | 1.14 µM | 3.35 µM | 0.942 µM | 9.66 µM | – | – | 3.51 µM | – | 0.44 µM | 4.97 µM |
| O=S(=O)(c1cccc2c(Cl)cccc12)N1CCCNCC1 | 19.8 µM | 36.4 µM | 3.62 µM | 18.1 µM | 13.4 µM | 26.3 µM | – | – | 11.8 µM | 25.3 µM | 11.2 µM | 24.3 µM | 2.88 µM | 22.4 µM | 15.7 µM | 29.1 µM | 11.7 µM | 29.4 µM | 14.1 µM | 28.5 µM |
| CC(NCCC(=O)N(CCC(=O)N(CCC(=O)N(CCC(=O)N(CCC(=O)N(CCC(=O)N(CCC(=O)N(CCC(=O)N(CCC(=O)N(CCC(=O)O)[C@H](C)c1ccccc1)[C@H](C)c1ccccc1)[C@H](C)c1ccccc1)[C@H](C)c1ccccc1)[C@H](C)c1ccccc1)[C@H](C)c1ccccc1)[C@H](C)c1ccccc1)[C@H](C)c1ccccc1)[C@H](C)c1ccccc1)c1ccccc1 (some centres undefined) | – | – | 1.6 µM | 5.37 µM | 1.17 µM | 2.37 µM | 2.04 µM | 5.91 µM | 3.62 µM | 20.2 µM | 2.48 µM | > 68.7 µM | 1.47 µM | 3.78 µM | 10.6 µM | > 53 µM | 3.42 µM | > 75 µM | 3.55 µM | > 75 µM |
| COc1cc2c(cc1OC)[C@H]1C(COC(=O)c3ccccc3)CSC(=Nc3ccccc3)N1CC2 (some centres undefined) | – | – | – | > 100 µM | – | > 100 µM | – | > 100 µM | – | > 100 µM | – | > 100 µM | – | > 100 µM | – | > 100 µM | – | – | – | > 100 µM |
| CCC[CH2][Sn]([CH2]CCC)([CH2]CCC)[O]C(=O)c1ccc(Cl)cc1Cl | 0.119 µM | 0.251 µM | 0.125 µM | 0.283 µM | 0.148 µM | 0.303 µM | 0.111 µM | 0.258 µM | – | – | 0.0958 µM | 0.226 µM | 0.151 µM | 0.321 µM | 0.142 µM | 0.279 µM | 0.138 µM | 0.289 µM | 0.146 µM | 0.304 µM |
| c1ccc2cc3[s+]snc3cc2c1 | – | – | – | > 100 µM | – | > 100 µM | – | > 100 µM | – | > 100 µM | – | > 100 µM | – | > 100 µM | – | > 100 µM | – | – | – | > 100 µM |
| Cc1[nH]c(=O)n2c(C)nnc2c1C(=O)Nc1cc(Cl)cc(Cl)c1 | – | – | – | > 100 µM | – | > 100 µM | – | > 100 µM | – | 68.5 µM | – | > 100 µM | – | 42 µM | – | 70.7 µM | – | – | – | 68.2 µM |
| O=C(Nc1ccc2[nH]c(=S)sc2c1)Nc1ccccc1F | 32 µM | > 100 µM | 44.3 µM | > 100 µM | 16.3 µM | > 100 µM | 18.4 µM | 64.2 µM | – | – | 21 µM | > 100 µM | 54.5 µM | > 100 µM | > 100 µM | > 100 µM | 4.47 µM | 33.4 µM | 4.09 µM | 22.5 µM |
| COc1ccc(S(=O)(=O)Nc2cc(/C=C\c3cc(OC)c(OC)c(OC)c3)ccc2OC)cc1 | 0.197 µM | > 100 µM | 0.0809 µM | 8.22 µM | 0.272 µM | > 100 µM | 0.0527 µM | 61.1 µM | 12.8 µM | > 100 µM | 0.581 µM | > 100 µM | 0.0814 µM | > 100 µM | 0.0963 µM | 38.3 µM | – | – | 0.131 µM | 7.48 µM |
| COc1ccc(CC(=O)NCCc2ccc(OC)c(OC)c2)cc1Br | – | – | – | > 100 µM | – | > 100 µM | – | > 100 µM | – | > 100 µM | – | > 100 µM | – | > 100 µM | – | > 100 µM | – | – | – | > 100 µM |
| Cc1ccc(NC(=O)C(=O)CC(=O)c2c(C)n([O-])c3ccccc3[n+]2=O)cc1 | – | – | – | 86.4 µM | – | 45.4 µM | – | 65.2 µM | – | > 100 µM | – | 96.3 µM | – | > 100 µM | – | > 100 µM | – | – | – | > 100 µM |
| CC(C)(CN1CCCCC1)C(=O)/C=C/c1ccc(Cl)cc1 | – | – | – | 11.7 µM | – | 12.5 µM | – | 18.9 µM | – | 14.7 µM | – | 16 µM | – | 13.8 µM | – | 23.5 µM | – | – | – | 20.2 µM |
| CCOC(=O)/C(=C\c1cccs1)P(=O)(OCC)OCC | – | – | – | 36.3 µM | – | 37.5 µM | – | 52.6 µM | – | 43.3 µM | – | 37.5 µM | – | 29.4 µM | – | > 100 µM | – | – | – | 36.1 µM |
| CN1C(=O)C(CC(=O)O)NC1=S (centres undefined) | – | > 100 µM | – | > 100 µM | – | > 100 µM | – | > 100 µM | – | – | – | – | – | > 100 µM | – | > 100 µM | – | > 100 µM | – | > 100 µM |
| COc1ccccc1C1c2cc3c(cc2OC(O)(CO)C1C(=O)O)OCO3 (centres undefined) (tested in a mixture with another compound) | – | – | – | > 100 µM | – | > 100 µM | – | > 100 µM | – | > 100 µM | – | > 100 µM | – | > 100 µM | – | > 100 µM | – | – | – | > 100 µM |

From PubChem BioAssay (NCI)
